In one assay the target is Mu-type opioid receptor (Homo sapiens, UniProt P35372). Description: Displacement of [3H]DAMGO from mu opioid receptor (unknown origin) expressed in CHO cells after 90 mins by liquid scintillation counting. Type of assay: cell-based. Background: In a radioligand displacement assay an active substance lowers the binding of a labelled ligand.
For assay [1], the target named is Delta-type opioid receptor (Homo sapiens, UniProt P41143). Description: Displacement of [3H]DPDPE from delta opioid receptor (unknown origin) expressed in CHO cells after 90 mins by liquid scintillation counting. Type of assay: cell-based.
Chain of Delta-type opioid receptor (P41143 whole entry): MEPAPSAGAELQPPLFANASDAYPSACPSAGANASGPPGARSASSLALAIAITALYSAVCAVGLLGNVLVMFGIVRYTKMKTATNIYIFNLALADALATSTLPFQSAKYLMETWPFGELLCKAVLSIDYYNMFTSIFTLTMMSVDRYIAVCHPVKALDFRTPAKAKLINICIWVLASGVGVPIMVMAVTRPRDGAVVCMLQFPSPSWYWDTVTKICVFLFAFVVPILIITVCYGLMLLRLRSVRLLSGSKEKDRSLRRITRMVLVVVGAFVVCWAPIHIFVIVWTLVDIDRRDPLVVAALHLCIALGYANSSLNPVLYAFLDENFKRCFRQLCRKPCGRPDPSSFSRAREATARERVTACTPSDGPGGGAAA

Chain of Mu-type opioid receptor (P35372 whole entry): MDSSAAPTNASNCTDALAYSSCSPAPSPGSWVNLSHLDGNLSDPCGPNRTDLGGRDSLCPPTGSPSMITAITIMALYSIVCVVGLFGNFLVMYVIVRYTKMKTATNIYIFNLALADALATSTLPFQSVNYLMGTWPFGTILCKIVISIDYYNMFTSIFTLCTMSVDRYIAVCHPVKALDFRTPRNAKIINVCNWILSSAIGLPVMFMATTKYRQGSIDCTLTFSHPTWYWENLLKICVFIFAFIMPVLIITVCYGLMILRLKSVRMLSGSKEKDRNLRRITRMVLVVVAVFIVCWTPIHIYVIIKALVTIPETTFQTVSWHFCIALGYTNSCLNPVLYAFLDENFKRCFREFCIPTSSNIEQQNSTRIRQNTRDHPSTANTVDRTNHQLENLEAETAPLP

One may read the Ki as a measure of affinity in units of concentration, obtained from inhibition or displacement. Read a low Ki as higher affinity. Consider `NC(=O)[C@@H]1Cc2ccccc2CN(C(=O)C[C@H](Cc2ccccc2)NC(=O)[C@@H]2CCCN2C(=O)[C@@H](N)Cc2ccc(O)cc2)C1`, for which the values for the inhibition constant (Ki) (on Mu-type opioid receptor; in assay [1]) were 21 nM and 695 nM, respectively.
On the same counts, the results for `NC(=O)[C@H]1Cc2ccccc2CN(C(=O)C[C@H](Cc2ccccc2)NC(=O)[C@@H]2CCCN2C(=O)[C@@H](N)Cc2ccc(O)cc2)C1` are 14 nM and 187 nM.
Turning to `NC(=O)[C@@H](CNC(=O)C[C@H](Cc1ccccc1)NC(=O)[C@@H]1CCCN1C(=O)[C@@H](N)Cc1ccc(O)cc1)Cc1ccccc1`, the values for the inhibitory constant (Ki) (on Mu-type opioid receptor; in assay [1]) were 5.5 nM and 1350 nM, respectively.
With `NC(=O)[C@H](CNC(=O)C[C@H](Cc1ccccc1)NC(=O)[C@@H]1CCCN1C(=O)[C@@H](N)Cc1ccc(O)cc1)Cc1ccccc1`, the values for the inhibition constant Ki (on Mu-type opioid receptor; in assay [1]) were 3.3 nM and 463 nM, respectively.
With `NC(=O)C[C@@H]1Cc2ccccc2CN1C(=O)C[C@H](Cc1ccccc1)NC(=O)[C@@H]1CCCN1C(=O)[C@@H](N)Cc1ccc(O)cc1`, the Ki at Mu-type opioid receptor is 20 nM; in assay [1], 1650 nM.
On the same counts, the results for `NC(=O)C[C@H](Cc1ccccc1)NC(=O)C[C@H](Cc1ccccc1)NC(=O)[C@@H]1CCCN1C(=O)[C@@H](N)Cc1ccc(O)cc1` are 19 nM and 2800 nM.
On the same counts, the results for `NC(=O)[C@H](CNC(=O)[C@H](CNC(=O)[C@@H]1CCCN1C(=O)[C@@H](N)Cc1ccc(O)cc1)Cc1ccccc1)Cc1ccccc1` are 101 nM and 922 nM.

These data come from ChEMBL document CHEMBL2407012, “Structural and biological exploration of phe(3)-phe(4)-modified endomorphin-2 peptidomimetics” (ACS Med Chem Lett, 2013).
